Earlier results in patent US8617560B2, “Peptides for vaccination against human CMV” (priority 1999, dated 2013).

Tested on: cytomegaloviruses
Conditions: background statement, Lutz Schneider 1991

Q: With `O=C(O)P(=O)(O)O` [Foscarnet] as the compound, how does the effect on cytomegaloviruses read?
A: The effect on cytomegaloviruses was “virostatic effect”.
